The record followed here is patent EP4667483A1, “HUMAN TRANSFERRIN RECEPTOR-BINDING PEPTIDE” (JCR Pharmaceuticals Co., Ltd., priority 2023, dated 2024).

SMILES strings stand for the structures. Numbered stars: 1 amine (or outer) side, 2 acyl side, 3 side chain; on linkers, the order of the positions; unused ones are H or OH. Bridge positions count the residues as written; N and C are the ends. Square brackets hold non-standard residues; d marks the D form. Peptide text beside a SMILES is read from it. * marks the point of attachment. NH(1-deoxy-D-glucityl) = OC[C@@H](O)[C@@H](O)[C@H](O)[C@@H](O)CN*; Ala(imidazo(1,2-a)pyr3yl) = N[C@@H](Cc1cnc2ccccn12)C(=O)O; Trp(1-CH2COOH) = N[C@@H](Cc1cn(CC(=O)O)c2ccccc12)C(=O)O; CH2CON(CH2CH2)2NCH2COOH = O=C(O)CN1CCN(C(=O)C*)CC1; NMePhe(4-COOH) = CN[C@@H](Cc1ccc(C(=O)O)cc1)C(=O)O; X7 = CN([C@@H](Cc1cccc(C(=O)O)c1)C(=O)[*:2])[*:1]; Nle(6-morpholino) = N[C@@H](CCCCN1CCOCC1)C(=O)O; Phe(3-COOH) = N[C@@H](Cc1cccc(C(=O)O)c1)C(=O)O; Trp(7-aza) = N[C@@H](Cc1c[nH]c2ncccc12)C(=O)O; NMePhe(3-Cl) = CN[C@@H](Cc1cccc(Cl)c1)C(=O)O; 3Pal(6-NH2) = Nc1ccc(C[C@H](N)C(=O)O)cn1; PEG8 = NCCOCCOCCOCCOCCOCCOCCOCCOCCC(=O)O; Tyr(3-Me) = Cc1cc(C[C@H](N)C(=O)O)ccc1O; NMeY = CN[C@@H](Cc1ccc(O)cc1)C(=O)O; Nva(3-Et) = CCC(CC)[C@H](N)C(=O)O; 4Pal = N[C@@H](Cc1ccncc1)C(=O)O; PEG4 = NCCOCCOCCOCCOCCC(=O)O; Carboxymethyl = O=C(O)C*

Type in all cases: binding
The target of assay [1] is T1, human transferrin receptor (hTfR) (Homo sapiens, UniProt P02786). Put plainly: Evaluation of pH dependence (ratio of SPR koff or KD at pH 6.0 to pH 7.4). The conditions noted are these: ratio of koff at pH 6.0 to pH 7.4. Here is the method: The ratio of the calculated koff or KD values under pH 6.0 conditions to those under pH 7.4 conditions was calculated to check pH dependency.
T1 sequence (P02786 whole entry): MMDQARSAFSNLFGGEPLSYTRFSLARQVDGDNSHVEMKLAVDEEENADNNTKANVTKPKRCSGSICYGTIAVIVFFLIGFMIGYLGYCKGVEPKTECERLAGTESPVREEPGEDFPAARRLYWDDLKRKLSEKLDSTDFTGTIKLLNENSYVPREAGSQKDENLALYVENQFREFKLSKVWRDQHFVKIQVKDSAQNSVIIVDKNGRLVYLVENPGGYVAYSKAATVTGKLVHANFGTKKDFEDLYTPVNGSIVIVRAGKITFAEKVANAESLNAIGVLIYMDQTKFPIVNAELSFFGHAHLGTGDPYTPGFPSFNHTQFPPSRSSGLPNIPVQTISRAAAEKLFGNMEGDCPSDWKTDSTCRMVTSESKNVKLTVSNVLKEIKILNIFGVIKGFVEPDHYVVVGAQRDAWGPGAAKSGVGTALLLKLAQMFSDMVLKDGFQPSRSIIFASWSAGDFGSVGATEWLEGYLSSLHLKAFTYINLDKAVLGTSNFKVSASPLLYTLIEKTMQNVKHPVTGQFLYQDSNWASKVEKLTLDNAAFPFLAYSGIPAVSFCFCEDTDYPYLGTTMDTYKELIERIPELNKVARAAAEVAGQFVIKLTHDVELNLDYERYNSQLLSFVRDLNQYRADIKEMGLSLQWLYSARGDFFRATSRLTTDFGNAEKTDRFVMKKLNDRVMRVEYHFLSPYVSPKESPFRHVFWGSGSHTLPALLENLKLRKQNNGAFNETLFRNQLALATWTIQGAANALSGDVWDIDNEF

The target in assay [2] is T1, human transferrin receptor (hTfR). Put plainly: SPR measurement under pH 7.4 conditions (Biacore T200, CM3 chip, hTfR captured by His Tag antibody). The conditions noted are these: read-out: hTfR SPR pH7.4 KD.
Assay [3] shares this target. Put plainly: SPR measurement under pH 6.0 conditions (Biacore T200, NTA chip, immobilized hTfR). The conditions noted are these: read-out: hTfR SPR pH6.0 KD.
[4] abbreviates: SPR, pH 7.4, peptide with the linker named in the table.
The mark [5] stands for this setting: SPR, pH 6.0, peptide with the linker named in the table.

Regarding `CC[C@H](C)[C@@H]1NC(=O)[C@H](Cc2ccc(OC)cc2)NC(=O)[C@H](Cc2ccc(O)cc2)NC(=O)[C@H](CC(N)=O)NC(=O)[C@H](Cc2c[nH]c3ccccc23)NC(=O)[C@H](C(C)C)NC(=O)[C@H](Cc2cccc(Cl)c2)N(C)C(=O)[C@H](C(C)C)NC(=O)[C@H](C)NC(=O)CSC[C@@H](C(=O)NCCOCCOCCOCCOCCC(N)=O)NC(=O)[C@H](Cc2cccc(C(=O)O)c2)N(C)C(=O)[C@H](Cc2cccc(C(=O)O)c2)NC(=O)[C@H](CCCNC(=N)N)NC(=O)[C@H](CCC(N)=O)NC(=O)[C@H]([C@@H](C)CC)NC1=O` [compound 81] ({CH2CO}-AV[NMePhe(3-Cl)]VWNYY(Me)IIQR[Phe(3-COOH)][X7]C[PEG4]-NH2; thioether N-15), the “dependency koff pH6.0/7.4” value in assay [1] was found to be 13.49.

As to `CCC(CC)[C@@H]1NC(=O)[C@H](Cc2ccc(OCC(=O)O)cc2)NC(=O)[C@H](Cc2ccc(O)c(C)c2)NC(=O)[C@H](CC(N)=O)NC(=O)[C@H](Cc2cn(CC(=O)O)c3ccccc23)NC(=O)[C@H](C(C)C)NC(=O)[C@H](Cc2cccc(Cl)c2)N(C)C(=O)[C@H](C(C)C)NC(=O)[C@H](C)NC(=O)CSC[C@@H](C(=O)NCCOCCOCCOCCOCCC(N)=O)NC(=O)[C@H](Cc2ccc(O)cc2)N(C)C(=O)[C@H](Cc2cccc(C(=O)O)c2)NC(=O)[C@H](CCCNC(=N)N)NC(=O)[C@H](CCC(N)=O)NC(=O)[C@H]([C@@H](C)CC)NC1=O` [compound 89] ({CH2CO}-AV[NMePhe(3-Cl)]V[Trp(1-CH2COOH)]N[Tyr(3-Me)]Y(Carboxymethyl)[Nva(3-Et)]IQR[Phe(3-COOH)][NMeY]C[PEG4]-NH2; thioether N-15), the “dependency koff pH6.0/7.4” value in assay [1] came to 8.08.

For `CC[C@H](C)[C@@H]1NC(=O)[C@H](Cc2ccc(OC)cc2)NC(=O)[C@H](Cc2ccc(O)cc2)NC(=O)[C@H](CC(N)=O)NC(=O)[C@H](Cc2c[nH]c3ccccc23)NC(=O)[C@H](C(C)C)NC(=O)[C@H](Cc2cccc(Cl)c2)N(C)C(=O)[C@H](C(C)C)NC(=O)[C@H](C)NC(=O)CSC[C@@H](C(=O)NCCOCCOCCOCCOCCC(N)=O)NC(=O)[C@H](Cc2ccc(C(=O)O)cc2)N(C)C(=O)[C@H](Cc2cccc(C(=O)O)c2)NC(=O)[C@H](CCCNC(=N)N)NC(=O)[C@H](CCC(N)=O)NC(=O)[C@H]([C@@H](C)CC)NC1=O` [compound 80] ({CH2CO}-AV[NMePhe(3-Cl)]VWNYY(Me)IIQR[Phe(3-COOH)][NMePhe(4-COOH)]C[PEG4]-NH2; thioether N-15), in assay [1], the “dependency koff pH6.0/7.4” value was 22.20.

Take `CCC(CC)[C@@H]1NC(=O)[C@H](Cc2ccc(OCC(=O)O)cc2)NC(=O)[C@H](Cc2ccc(O)cc2)NC(=O)[C@H](CC(N)=O)NC(=O)[C@H](Cc2cn(CC(=O)O)c3ccccc23)NC(=O)[C@H](C(C)C)NC(=O)[C@H](Cc2cccc(Cl)c2)N(C)C(=O)[C@H](C(C)C)NC(=O)[C@H](C)NC(=O)CSC[C@@H](C(=O)NCCOCCOCCOCCOCCC(N)=O)NC(=O)[C@H](Cc2ccc(OC)cc2)N(C)C(=O)[C@H](Cc2cccc(C(=O)O)c2)NC(=O)[C@H](CCCNC(=N)N)NC(=O)[C@H](CCC(N)=O)NC(=O)[C@H]([C@@H](C)CC)NC1=O` [compound 93] ({CH2CO}-AV[NMePhe(3-Cl)]V[Trp(1-CH2COOH)]NYY(Carboxymethyl)[Nva(3-Et)]IQR[Phe(3-COOH)][NMeY](Me)C[PEG4]-NH2; thioether N-15): in assay [1], the “dependency koff pH6.0/7.4” value came to 7.99.

Take `CCC(CC)[C@@H]1NC(=O)[C@H](Cc2ccc(OCC(=O)O)cc2)NC(=O)[C@H](Cc2ccc(N)nc2)NC(=O)[C@H](CC(N)=O)NC(=O)[C@H](Cc2cn(CC(=O)O)c3ccccc23)NC(=O)[C@H](C(C)C)NC(=O)[C@H](Cc2cccc(Cl)c2)N(C)C(=O)[C@H](C(C)C)NC(=O)[C@H](C)NC(=O)CSC[C@@H](C(=O)NCCOCCOCCOCCOCCC(N)=O)NC(=O)[C@H](Cc2ccc(C(=O)O)cc2)N(C)C(=O)[C@H](Cc2cccc(C(=O)O)c2)NC(=O)[C@H](CCCCN2CCOCC2)NC(=O)[C@H](CCCCN2CCOCC2)NC(=O)[C@H]([C@@H](C)CC)NC1=O` [compound 86] ({CH2CO}-AV[NMePhe(3-Cl)]V[Trp(1-CH2COOH)]N[3Pal(6-NH2)]Y(Carboxymethyl)[Nva(3-Et)]I[Nle(6-morpholino)][Nle(6-morpholino)][Phe(3-COOH)][NMePhe(4-COOH)]C[PEG4]-NH2; thioether N-15): in assay [1], the “dependency koff pH6.0/7.4” value amounted to 28.16.

As for `CCC(CC)[C@@H]1NC(=O)[C@H](Cc2cnc3ccccn23)NC(=O)[C@H](Cc2ccc(O)cc2)NC(=O)[C@H](CC(N)=O)NC(=O)[C@H](Cc2cn(CC(=O)O)c3ccccc23)NC(=O)[C@H](C(C)C)NC(=O)[C@H](Cc2cccc(Cl)c2)N(C)C(=O)[C@H](C(C)C)NC(=O)[C@H](C)NC(=O)CSC[C@@H](C(=O)NCCOCCOCCOCCOCCC(N)=O)NC(=O)[C@H](Cc2ccc(O)cc2)N(C)C(=O)[C@H](Cc2cccc(C(=O)O)c2)NC(=O)[C@H](CCCNC(=N)N)NC(=O)[C@H](CCC(N)=O)NC(=O)[C@H]([C@@H](C)CC)NC1=O` [compound 91] ({CH2CO}-AV[NMePhe(3-Cl)]V[Trp(1-CH2COOH)]NY[Ala(imidazo(1,2-a)pyr3yl)][Nva(3-Et)]IQR[Phe(3-COOH)][NMeY]C[PEG4]-NH2; thioether N-15), the “dependency koff pH6.0/7.4” value in assay [1] was 9.32.

For `CC[C@H](C)[C@@H]1NC(=O)[C@H](Cc2ccc(OCC(=O)O)cc2)NC(=O)[C@H](Cc2ccc(N)nc2)NC(=O)[C@H](CC(N)=O)NC(=O)[C@H](Cc2c[nH]c3ccccc23)NC(=O)[C@H](C(C)C)NC(=O)[C@H](Cc2cccc(Cl)c2)N(C)C(=O)[C@H](C(C)C)NC(=O)[C@H](C)NC(=O)CSC[C@@H](C(=O)NCC(=O)N[C@@H](CCCCN=[N+]=[N-])C(N)=O)NC(=O)[C@H](Cc2ccc(O)cc2)N(C)C(=O)[C@H](Cc2cccc(C(=O)O)c2)NC(=O)[C@H](CCCNC(=N)N)NC(=O)[C@H](CCC(N)=O)NC(=O)[C@H]([C@@H](C)CC)NC1=O` [compound 149], the Kd in assay [2] (setting [4]) stood at 3.57 nM; in assay [3] (setting [5]), 28.1 nM.

Consider `CCC(CC)[C@@H]1NC(=O)[C@H](Cc2ccc(OCC(=O)O)cc2)NC(=O)[C@H](Cc2ccc(O)cc2)NC(=O)[C@H](CC(N)=O)NC(=O)[C@H](Cc2cn(CC(=O)O)c3ccccc23)NC(=O)[C@H](C(C)C)NC(=O)[C@H](Cc2cccc(Cl)c2)N(C)C(=O)[C@H](C(C)C)NC(=O)[C@H](C)NC(=O)CSC[C@@H](C(=O)NCCOCCOCCOCCOCCC(N)=O)NC(=O)[C@H](Cc2ccc(O)cc2)N(C)C(=O)[C@H](Cc2cccc(C(=O)O)c2)NC(=O)[C@H](Cc2c[nH]cn2)NC(=O)[C@H](CCC(N)=O)NC(=O)[C@H]([C@@H](C)CC)NC1=O` [compound 98] ({CH2CO}-AV[NMePhe(3-Cl)]V[Trp(1-CH2COOH)]NYY(Carboxymethyl)[Nva(3-Et)]IQH[Phe(3-COOH)][NMeY]C[PEG4]-NH2; thioether N-15), for which the results for the Kd in assay [2] (setting [4]) and in assay [3] (setting [5]) were 20.6 nM and 145 nM, respectively.

For the compound `CC[C@H](C)[C@@H]1NC(=O)[C@H](Cc2ccc(OCC(=O)N3CCN(CC(=O)O)CC3)cc2)NC(=O)[C@H](Cc2ccc(O)cc2)NC(=O)[C@H](CC(N)=O)NC(=O)[C@H](Cc2c[nH]c3ncccc23)NC(=O)[C@H](C(C)C)NC(=O)[C@H](Cc2cccc(Cl)c2)N(C)C(=O)[C@H](C(C)C)NC(=O)[C@H](C)NC(=O)CSC[C@@H](C(=O)NCCOCCOCCOCCOCCC(N)=O)NC(=O)[C@H](Cc2ccc(O)cc2)N(C)C(=O)[C@H](Cc2cccc(C(=O)O)c2)NC(=O)[C@H](CCCCN2CCOCC2)NC(=O)[C@H](CCC(N)=O)NC(=O)[C@H]([C@@H](C)CC)NC1=O` [compound 24] ({CH2CO}-AV[NMePhe(3-Cl)]V[Trp(7-aza)]NYY(CH2CON(CH2CH2)2NCH2COOH)IIQ[Nle(6-morpholino)][Phe(3-COOH)][NMeY]C[PEG4]-NH2; thioether N-15), the equilibrium dissociation constant (Kd) was 2.01 nM in assay [2] (pH 7.4, single-cycle kinetics) and 26.7 nM in assay [3] (pH 6.0, single-cycle kinetics).

In the case of `CC[C@H](C)[C@@H]1NC(=O)[C@H](Cc2ccc(OC)cc2)NC(=O)[C@H](Cc2ccc(N)nc2)NC(=O)[C@H](CC(N)=O)NC(=O)[C@H](Cc2c[nH]c3ncccc23)NC(=O)[C@H](C(C)C)NC(=O)[C@H](Cc2cccc(Cl)c2)N(C)C(=O)[C@H](C(C)C)NC(=O)[C@H](C)NC(=O)CSC[C@@H](C(=O)NCCOCCOCCOCCOCCC(N)=O)NC(=O)[C@H](Cc2ccc(O)cc2)N(C)C(=O)[C@H](Cc2ccncc2)NC(=O)[C@H](CCCCN2CCOCC2)NC(=O)[C@H](CCC(=O)NC[C@H](O)[C@@H](O)[C@H](O)[C@H](O)CO)NC(=O)[C@H]([C@@H](C)CC)NC1=O` [compound 20] ({CH2CO}-AV[NMePhe(3-Cl)]V[Trp(7-aza)]N[3Pal(6-NH2)]Y(Me)IIE(NH(1-deoxy-D-glucityl))[Nle(6-morpholino)][4Pal][NMeY]C[PEG4]-NH2; thioether N-15), the Kd stood at 4.08 nM in assay [2] (pH 7.4, single-cycle kinetics) and 41.3 nM in assay [3] (pH 6.0, single-cycle kinetics).

On to `CC[C@H](C)[C@@H]1NC(=O)[C@H](Cc2ccc(OCC(=O)O)cc2)NC(=O)[C@H](Cc2ccc(O)cc2)NC(=O)[C@H](CC(N)=O)NC(=O)[C@H](Cc2c[nH]c3ncccc23)NC(=O)[C@H](C(C)C)NC(=O)[C@H](Cc2cccc(Cl)c2)N(C)C(=O)[C@H](C(C)C)NC(=O)[C@H](C)NC(=O)CSC[C@@H](C(=O)NCCOCCOCCOCCOCCC(N)=O)NC(=O)[C@H](Cc2ccc(O)cc2)N(C)C(=O)[C@H](CCC(=O)NCCOCCOCCOCCOCCOCCOCCOCCOCCC(=O)O)NC(=O)[C@H](CCCNC(=N)N)NC(=O)[C@H](CCC(N)=O)NC(=O)[C@H]([C@@H](C)CC)NC1=O` [compound 139] ({CH2CO}-AV[NMePhe(3-Cl)]V[Trp(7-aza)]NYY(Carboxymethyl)IIQRE(PEG8)[NMeY]C[PEG4]-NH2; thioether N-15), for which the Kd in assay [2] (setting [4]) turned out to be 107 nM; in assay [3] (setting [5]), 524 nM.
